Data on 6 compounds can be found in US10906909B2, “Treatment of cognitive and mood symptoms in neurodegenerative and neuropsychiatric disorders with ALPHA5-containing GABAA receptor agonists” (UWM Research Foundation, Inc., priority 2016, dated 2021).

Data set [1] relates to Female Swiss Webster mice. Kind of data set: Rotarod sensorimotor / locomotor coordination. Type of data set: in vivo, mouse. The note with it: 40 mg/kg oral gavage; 15 rpm, 3 min; 10, 30, 60 min after dosing. On the procedure:
Female Swiss Webster mice (10 weeks of age) from Charles River Laboratory, WIL, MA were used for the experiments. The animals were housed under specific pathogen-free conditions, under standard conditions of humidity, temperature and a controlled 12 h light and dark cycle and had free access to food and water. The sensorimotor rotarod test was carried out 10, 30 and 60 minutes after the injection. Mice were tested on a rotarod at 15 rpm for maximum 3 min and the time of fall was recorded. Falling before the 3 minutes period of testing assesses of locomotor coordination impairment induced by the compound.
Mice (N=10/group) received a single administration via oral gavage of test compound (40 mg/kg), diazepam (5 mg/kg), or vehicle (2% polyethylene glycol, 2.5% hydroxypropylmethyl cellulose solution).
On the technique in general: The rotarod test checks motor coordination on a turning rod.

In the next data set the test system is 18 months-old mice. The data set can be described thus: Y-maze alternation task, old mice. The note with it: 5 mg/kg i.p. 30 min before testing. Format: in vivo, mouse. How it is done: C57/B16 male mice males were ordered from Jackson Laboratories at 10 months-old and were kept in normal housing conditions (12 h light ON cycle starting at 7 am/water and food ad libitum) until they reached the age of 18 months. A younger cohort of 8 week old animals was used as controls for the experiment. Before testing animals were handled to reduce the anxiety-like response toward the experimenter. Normal aging induced-working memory deficits were assessed using the Y-maze test as described below.
Mice were first habituated to the Y-maze apparatus and distal cues during 2 consecutive days over a 10 min free exploration session (one session per day). The next day, animals performed a training session consisting in seven successive trials separated by a 30 s inter-trial interval (ITI); during this training session, mice were familiarized with the experimental procedure (opening and closing of the doors and confinement into the goal arms). […] Then, the door was opened and the mouse was allowed to enter freely one of the two goal arms; the chosen arm was closed and the choice was recorded. […]
The same general procedure used in the training session was implemented 24 h later, except that the ITI was lengthened to 90 s. […] The mean alternation rate was calculated and was expressed in percentage (number of alternation done by the animal/total number of alternation possible×100)±SEM. […]

The next data set relates to rats. The data set can be described thus: Social novelty discrimination (SND). Format: in vivo, rat. To be noted: 10 mg/kg. On the procedure: The SND test compares the social investigation times of an adult rat with a familiar and a novel juvenile rat. Testing consisted of two consecutive juvenile presentations periods to an adult subject: period 1 (P1) and period 2 (P2). At the beginning of P1, one juvenile was placed into the adult home cage and the time spent by the adult investigating the juvenile (anogenital sniffing, licking, close pursuing and pawing) was recorded manually for 5 min. During P2, the same juvenile and a second, novel juvenile were placed in the cage together with the adult, and the times spent by the adult investigating each juvenile were measured independently for 3 min. A different pair of juvenile rats was presented to each adult tested. Manual scoring was conducted in a blinded manner. SND was deliberately impaired in control rats by the parametric manipulation applied, as there was 30 min delay between P1 and P2, and their SND was expected to be low. The influence of MP-III-022 (1, 2.5 or 10 mg/kg) on the thus induced impairment in SND was examined. There were five groups of rats which received one of the following treatments 20 min before P1: solvent, 1.5 mg/kg diazepam and 1, 2.5 and 10 mg/kg MP-III-022. The amount of time investigating familiar (Tf) and novel (Tn) juvenile during P2 was manually scored, and discrimination indexes (Tn−Tf/Tn+Tf) was calculated. Total exploration time during P1 and P2 was also manually recorded.

For data set [2] the following is noted: Wistar rats, Stamenic et al. 2016, cited from earlier work.

“Also recorded” adds a separate entry of the source.

As to `C#Cc1ccc2c(c1)C(c1ccccc1F)=N[C@@H](C)c1c(C(=O)N(C)C)ncn1-2` [GL-I-54, (S)-8-ethynyl-6-(2-fluorophenyl)-N,N,4-trimethyl-4H-benzo[f]imidazo[1,5-a][1,4]diazepine-3-carboxamide], the “sensorimotor impairment on rotarod (time of fall)” value (shortened to “sensorimotor impairment on rotarod”) in data set [1] was “most severe motor impairment”.

For the compound `C#Cc1ccc2c(c1)C(c1ccccc1F)=N[C@H](C)c1c(C(=O)N(C)C)ncn1-2` [GL-II-73, (R)-8-ethynyl-6-(2-fluorophenyl)-N,N,4-trimethyl-4H-benzo[f]imidazo[1,5-a][1,4]diazepine-3-carboxam], the “effect on age-induced working memory impairment (percent alternation rate, Y-maze)” value in the data set on 18 months-old mice is given as “significant reversal of age-induced impairment in working memory; also recorded: significant pro-cognitive effect”. Moreover, in data set [1], the “sensorimotor impairment on rotarod” value is “no sensorimotor impairment”.

Regarding `C#Cc1ccc2c(c1)C(c1ccccc1F)=N[C@H](C)c1c(C(=O)NCC)ncn1-2` [GL-II-74, (R)—N-ethyl-8-ethynyl-6-(2-fluorophenyl)-4-methyl-4H-benzo[f]imidazo[1,5-a][1,4]diazepine-3-carboxamide], the “sensorimotor impairment on rotarod” value in data set [1] was “no sensorimotor impairment”.

Regarding `C#Cc1ccc2c(c1)C(c1ccccc1F)=N[C@H](C)c1c(C(=O)NC3CC3)ncn1-2` [GL-II-75, (R)—N-cyclopropyl-8-ethynyl-6-(2-fluorophenyl)-4-methyl-4H-benzo[f]imidazo[1,5-a][1,4]diazepine-3-carboxamide], the “effect on age-induced working memory impairment (percent alternation rate, Y-maze)” value in the data set with 18 months-old mice was “significant reversal of age-induced impairment in working memory; also recorded: significant pro-cognitive effect”.

With `C#Cc1ccc2c(c1)C(c1ccccc1F)=N[C@H](C)c1c(C(=O)N3CCCC3)ncn1-2` [GL-II-76, (R)-(8-ethynyl-6-(2-fluorophenyl)-4-methyl-4H-benzo[f]imidazo[1,5-a][1,4]diazepin-3-yl)(pyrrolidin-1-yl)methanone], the “sensorimotor impairment on rotarod” value in data set [1] is recorded as “no sensorimotor impairment”.

With `C#Cc1ccc2c(c1)C(c1ccccc1F)=N[C@H](C)c1c(C(=O)NC)ncn1-2` [MP-III-022], the “discrimination index (social novelty discrimination)” value in the data set with rats (20 min before P1, one-sample t-test vs zero) is on record as “significant differences from zero”. For the same compound, the “time exploring the familiar and the novel juvenile rat during P2” value with rats (20 min before P1, paired t-test) is given as “spent significantly more time in exploring the new rat”. In data set [2] (i.p. single dose), the “terminal elimination half-life t1/2, brain” value is 70 min and the “terminal elimination half-life t1/2, plasma” value is recorded as 35 min. The “systemic and brain exposure” value in data set [2] (single i.p. dose) was “excellent systemic and brain exposure”.
